Test results taken from patent publication US20250066423A1, “SESTRIN-MAPK COMPLEX INHIBITORS” (Sentcell Ltd, priority 2021, published 2025).
Peptide text beside a SMILES is read from it.

Columns and labels:
[1] = test system: sMAC activation (Sestrin 2, p-p38); experiment: Titration of DOS46L in senescent CD4+ CD27− CD28− T cells, immunoblot; type: cell-based, human; conditions: within 4 hours of treatment
Description: FIG. 7 illustrates titration of DOS46L. (A-B) CD4+ CD27− CD28− T cells were isolated from PBMCs from healthy donors and treated with increasing doses of DOS46L compound for 4 hours and harvested for immunoblot analysis. (A) Levels of Sestrin 2, p-p38 and H2B were evaluated by immunoblot. (B) Quantification of Sestrin 2 was analysed with Histone 3 as a loading control. Represented are the mean values±SEM of at least three independent experiments. Values are compared using One-Way ANOVA test followed by Tukey's post hoc test. (C-D) CD4+ CD27−CD28− T cells were treated with DOS46L compound (10 uM) for 0.5, 1, 2 and 4 hours and harvested for immunoblot analysis at indicated time points. (C) Levels of Sestrin 1, Sestrin 2, and Sestrin 3 were evaluated by immunoblot. Histone 3 was used as a loading control. (D) Quantification of Sestrin 1, Sestrin 2 and Sestrin 3, with Histone 3 as a loading control. Represented are the mean values±SEM of at least four independent experiments. Values are compared using One-Way ANOVA test followed by Tukey's post hoc test or Student's T-test. *p<0.05, **p<0.01
• 1. CD4+ cells were separated from PBMC using appropriate microbeads kit (Miltenyi) • 2. Cells were resuspended in whole RPMI medium and plated in the 24-multiwell plate • 3. Then activated for 4 hrs with DOS compounds • 4. […]

recombinant sestrin 3 = target: T1, recombinant sestrin 3 (Homo sapiens, UniProt P58005); experiment: Streptavidin pull-down of biotinylated DOS46L with flag recombinant sestrins; type: binding; conditions: in vitro
T1 sequence (P58005 1-492): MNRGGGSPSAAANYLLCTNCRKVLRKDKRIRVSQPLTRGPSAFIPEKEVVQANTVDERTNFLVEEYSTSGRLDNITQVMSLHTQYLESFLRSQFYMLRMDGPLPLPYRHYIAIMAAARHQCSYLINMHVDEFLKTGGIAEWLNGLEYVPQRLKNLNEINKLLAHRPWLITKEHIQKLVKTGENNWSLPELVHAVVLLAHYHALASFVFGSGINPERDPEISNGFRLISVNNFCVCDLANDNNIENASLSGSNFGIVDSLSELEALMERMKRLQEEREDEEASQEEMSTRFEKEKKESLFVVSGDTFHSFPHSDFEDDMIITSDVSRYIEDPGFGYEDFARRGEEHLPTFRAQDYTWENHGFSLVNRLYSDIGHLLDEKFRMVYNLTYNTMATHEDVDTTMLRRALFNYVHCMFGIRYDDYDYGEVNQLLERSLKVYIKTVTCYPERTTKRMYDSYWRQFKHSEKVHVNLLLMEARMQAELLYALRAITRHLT
Description: However, it should be considered that direct binding is not a pre-requisite for DOS sestrin inhibitory function.
(A) Biotinylated DOS46L was mixed with flag recombinant Sestrins, immunoprecipitated with streptavidin and immunoblotted with flag Sestrins. […] Representative images from three experiments are shown. […] (D) DOS46L binds to the entire sMAC complex in CD4 T cells. CD4+ T cells were isolated from PBMCs from healthy donors and treated with biotinylated DOS46L compound (10 uM) for 4 hours. Cells were harvested for immunoprecipitation analysis.

T cells = experiment: Seahorse assay for cell metabolism (OCR, FAO); type: cell-based, human; conditions: T cells treated for 24h
Description: Senescent T cells and stem cells were analysed using FACS analysis. (B—C) Represented is the ratio to untreated sample. Each dot is an individual donor. (D) Oxygen Consumption Rate (OCR) of T cells treated with DOS46L for 24h were measured by Seahorse. […] (E) The FAO index was calculated by OCR difference between Ctrl and DOS46L treated T cells in the presence or in the absence of the FAO inhibitor etomoxir by Seahorse. Student's T-test was used to analyse the data. **p<0.01; ***p<0.001.
• 1. CD4+ cells were purified from PBMC using appropriate microbeads (Miltenyi) • 2. Purified CD4+ cells were activated with CD3/CD28 Dynabeads (Gibco) and treated over-night with DOS46L at 10 μM. • 3. Day after, the conventional growth media was removed from the cells and was added the “substrate-limited growth media” composed of basic DMEM plus 0.5 mM glucose, 1 mM glutamine and 1% FBS. • 4. Cells were then incubated with this media for 4 hrs in incubator. • 5. Cells were then counted and plated at the concentration of 2*10^5 cells/well in the XF96 well plate pre-treated with poly-lysine. • 6. Cells were then supplemented with the “assay media” composed of XF DMEM with 2 mM of glucose and 0.5 mM L-carnitine. • 7. […] Seahorse machine took reads of OCR values at different time points for the time span of 120 mins. […] Cells were left in incubator for 12 days and then they were analysed.

[2] = test system: influenza specific antibody titres; type: in vivo; conditions: old mice, single dose along with the vaccine, 2, 4 and 8 weeks after vaccination, versus young mice
H1N1 PR8/54 = type: in vivo, mice
H1N1 = experiment: Autoptic lung analysis and viral clearance (qPCR of viral protein PA) in lungs of old mice; conditions: mouse, in vivo
[3] = test system: CD95+ CD62L+ CD44− CD4+ memory T cells; type: in vivo, mice; conditions: examined up to 8 weeks

CC[C@H](C)[C@@H]1NC(=O)[C@H](Cc2ccccc2)NC(=O)[C@H](C)NC(=O)[C@H](C(C)C)NC(=O)[C@@H]2CCCN2C1=O [DOS46L] (cyclo(AFIPV))
concentration from which sMAC activation is suppressed [1]: 16 nM
direct binding to recombinant sestrin 3 (recombinant sestrin 3): does not directly bind
oxidative metabolism and Fatty Acid Oxidation (FAO) (T cells): Induction of Fatty Acid Oxidation (FAO)
influenza specific antibody titres [2]: completely restored
relative effectiveness at low dose (H1N1 PR8/54; 0.1. mg/Kg): more effective at a very low dose
survival data, comparison of compounds (H1N1 PR8/54; old mice, vaccination with DOS, H1N1 PR8/54): similar
lung necrosis (H1N1): protection from lung necrosis
stem-like memory T cell generation [3]: permanent stem-like generation
